Experiments:
TBK1 = biological target: T1, TBK1 (Homo sapiens, UniProt Q9UHD2); test: Inhibition of TBK1 in Cells (TLR3 driven ISRE β-lactamase reporter assay); assay type: cell-based; details: poly IC-LMW stimulation 16 hrs; -log(EC50), EC50 molar; read-out: Inhibition of TBK1 in cells pEC50 (EC) (converted)
T1 construct: host or cells: RA1-ISRE beta-lactamase reporter cells
T1 sequence (Q9UHD2 1-729): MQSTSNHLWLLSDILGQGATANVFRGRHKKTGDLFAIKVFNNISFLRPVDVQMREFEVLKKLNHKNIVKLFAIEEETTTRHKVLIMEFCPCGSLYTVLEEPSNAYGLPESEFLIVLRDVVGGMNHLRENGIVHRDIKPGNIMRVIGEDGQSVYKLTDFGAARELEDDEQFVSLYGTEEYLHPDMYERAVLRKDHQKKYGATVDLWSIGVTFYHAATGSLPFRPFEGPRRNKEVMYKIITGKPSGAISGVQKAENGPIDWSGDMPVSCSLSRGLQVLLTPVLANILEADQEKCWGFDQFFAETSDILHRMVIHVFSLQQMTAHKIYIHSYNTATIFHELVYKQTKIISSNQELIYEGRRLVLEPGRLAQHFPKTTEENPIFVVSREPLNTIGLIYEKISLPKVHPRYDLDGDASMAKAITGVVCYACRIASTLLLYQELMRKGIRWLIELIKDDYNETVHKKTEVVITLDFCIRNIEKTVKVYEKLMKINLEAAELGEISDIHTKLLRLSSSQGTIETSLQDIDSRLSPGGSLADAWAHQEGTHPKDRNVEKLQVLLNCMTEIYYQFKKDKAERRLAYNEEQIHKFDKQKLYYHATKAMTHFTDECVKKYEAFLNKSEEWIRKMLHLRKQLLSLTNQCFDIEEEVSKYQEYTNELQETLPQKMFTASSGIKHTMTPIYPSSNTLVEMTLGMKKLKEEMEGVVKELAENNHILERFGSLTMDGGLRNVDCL
Description: TBK1 inhibition is determined using a TLR3 driven RA1-ISRE β-lacatamase reporter assay (Life Technologies). In the assay 50,000 cells/well are plated in black clear bottom 384 well plate. Each test compound is prepared in DMSO using 2.5-fold serial dilutions for 11 data points, which are then added to the media. Cells are stimulated with 0.15 mg/ml poly IC-LMW (Invivogen) for 16 hrs. Reporter activity is detected using the LiveBLAzer-FRET B/G CCF4-AM substrate (Life Technologies) and the plate is read using the Spectramax M5 instrument. Corresponding EC50 values are calculated by non-linear curve fitting of the compound concentrations and percent of inhibition to the standard EC50 equation and reported as pEC50, i.e., −log(EC50), where EC50 is the molar concentration.

Full length human TBK1 = biological target: T2, Full length human TBK1 (Homo sapiens, UniProt Q9UHD2); test: Inhibition of TBK1 Enzyme (Caliper microfluidic assay); assay type: biochemical; details: 25 μM ATP, 60 min at RT; -log(IC50), IC50 molar; read-out: TBK1 Inhibition (pIC50) (converted)
T2 construct: Full length human TBK1 with an N-terminal His-tag; His-tag (N); made in house; host or cells: Sf9 insect cells (baculovirus, pFastBac1)
T2 sequence (Q9UHD2 1-729): T1 sequence (Q9UHD2 1-729)
Description: Full length human TBK1 with an N-terminal His-tag was cloned into the pFastBacl vector and was transfected into Sf9 cells. 72 hours later the virus was harvested and amplified through two additional rounds of infections. Then 400 ml of the resulting virus stock was used to infect 10L of Sf9 cells at a density of 2×10^6 cells/ml. Cell pellets were harvested 48 hours post infection and were lysed by freeze-thaw, homogenization and sonication in binding buffer (25 mM Tris pH7.6, 1 M NaCl, 10 mM imidazole, 0.5 mM TCEP) plus 0.1% Triton X-100 and complete protease inhibitor cocktail. The lysate was spun and the supernatant was purified with a HisTrap FF crude and a Superdex 200 pg column.
TBK1 inhibition is determined using a 384 well plate format in buffer containing 20 mM Hepes, pH 7.4, 10 mM MgCl2, 1 mM EDTA, 0.01% Brij-L23, 1 mM DTT. Each test compound is prepared in DMSO using 2.5-fold serial dilutions for 11 data points, which are added to the buffer so that each dilution contains 1% DMSO. To each well is added 2 μL of 1 μm 5FAM-DRHDSGLDSMKDE-NH2 (in buffer), 2 μL of diluted test compound (1% DMSO in buffer), and 5 μL of 3 nM TBK1 and 25 μM ATP (in buffer). The reaction mixture is incubated at RT for 60 min, and quenched by adding 20 mM Hepes, pH 7.4, 10 mM MgCl2, 1 mM EDTA, 0.01% Brij-L23, 1 mM DTT+25 mM EDTA. To quantify the fluorescent-labeled substrate and product following reaction, the test plate is loaded on a Caliper LC-3000, which measures percent of conversion by microfluidic-based separation. Corresponding IC50 values are calculated by non-linear curve fitting of the compound concentrations and percent of inhibition to the standard IC50 equation and reported as pIC50, i.e., −log(IC50), where IC50 is the molar concentration.

| EC50 (TBK1) | IC50 (Full length human TBK1) | Structure (SMILES) |
| --- | --- | --- |
| 25100 nM | 158 nM | O=C(N[C@H]1CCOC1)c1cc(-c2ccc3nc(NC(=O)C4CC4)cn3c2)[nH]n1 [Example 53, (S)-5-(2-(cyclopropanecarboxamido)imidazo[1,2-a]pyridin-6-yl)-N-(tetrahydrofuran-3-yl)-1H-pyrazole-3-carboxamide] |
| 20000 nM | 251 nM | O=C(Nc1cn2cc(-c3csc(C(=O)N4CCOCC4)c3)ccc2n1)C1CC1 [Example 54, N-{6-[5-(morpholine-4-carbonyl)thiophen-3-yl]imidazo[1,2-a]pyridin-2-yl}cyclopropanecarboxamide] |
| 275 nM | 6.31 nM | O=C(NCC(F)F)c1cc(-c2ccc3nc(NC(=O)C4CC4)cn3c2)cs1 [Example 55, 4-(2-(cyclopropanecarboxamido)imidazo[1,2-a]pyridin-6-yl)-N-(2,2-difluoroethyl)thiophene-2-carboxamide] |
| 631 nM | 25.1 nM | CC(C)(NC(=O)c1cc(-c2ccc3nc(NC(=O)C4CC4)cn3c2)cs1)C(F)(F)F [Example 56, 4-(2-(cyclopropanecarboxamido)imidazo[1,2-a]pyridin-6-yl)-N-(1,1,1-trifluoro-2-methylpropan-2-yl)thiophene-2-carboxamide] |
| 219 nM | 10 nM | CC(F)(F)CNC(=O)c1cc(-c2ccc3nc(NC(=O)C4CC4)cn3c2)cs1 [Example 57, 4-(2-(cyclopropanecarboxamido)imidazo[1,2-a]pyridin-6-yl)-N-(2,2-difluoropropyl)thiophene-2-carboxamide] |
| 240 nM | 20 nM | CC(NC(=O)c1cc(-c2ccc3nc(NC(=O)C4CC4)cn3c2)cs1)C(F)(F)F (centres unmarked) [Example 59, 4-(2-(cyclopropanecarboxamido)imidazo[1,2-a]pyridin-6-yl)-N-(1,1,1-trifluoropropan-2-yl)thiophene-2-carboxamide] |
| 234 nM | 15.8 nM | O=C(Nc1cn2cc(-c3csc(C(=O)N4CCCC4C(F)(F)F)c3)ccc2n1)C1CC1 (centres unmarked) [Example 60, N-(6-(5-(2-(trifluoromethyl)pyrrolidine-1-carbonyl)thiophen-3-yl)imidazo[1,2-a]pyridin-2-yl)cyclopropanecarboxamide] |
| 2630 nM | 39.8 nM | O=C(Nc1cn2cc(-c3csc(C(=O)N4CCC[C@H]4C(F)(F)F)c3)ccc2n1)C1CC1 [Example 61, (S)-N-(6-(5-(2-(trifluoromethyl)pyrrolidine-1-carbonyl)thiophen-3-yl)imidazo[1,2-a]pyridin-2-yl)cyclopropanecarboxamide] |
| 74.1 nM | 3.98 nM | O=C(Nc1cn2cc(-c3csc(C(=O)N4CCC[C@@H]4C(F)(F)F)c3)ccc2n1)C1CC1 [Example 62, (R)-N-(6-(5-(2-(trifluoromethyl)pyrrolidine-1-carbonyl)thiophen-3-yl)imidazo[1,2-a]pyridin-2-yl)cyclopropanecarboxamide] |
| 372 nM | 15.8 nM | CC(C)CNC(=O)c1cc(-c2ccc3nc(NC(=O)C4CC4)cn3c2)cs1 [Example 63, 4-(2-(cyclopropanecarboxamido)imidazo[1,2-a]pyridin-6-yl)-N-isobutylthiophene-2-carboxamide] |
| 676 nM | 20 nM | O=C(NCC1CC1)c1cc(-c2ccc3nc(NC(=O)C4CC4)cn3c2)cs1 [Example 65] |
| 2040 nM | 100 nM | O=C(NC1CCOCC1)c1cc(-c2ccc3nc(NC(=O)C4CC4)cn3c2)cs1 [Example 66, 4-(2-(cyclopropanecarboxamido)imidazo[1,2-a]pyridin-6-yl)-N-(tetrahydro-2H-pyran-4-yl)thiophene-2-carboxamide] |
| 1170 nM | 63.1 nM | O=C(NC1CCCOC1)c1cc(-c2ccc3nc(NC(=O)C4CC4)cn3c2)cs1 (centres unmarked) [Example 67, 4-(2-(cyclopropanecarboxamido)imidazo[1,2-a]pyridin-6-yl)-N-(tetrahydro-2H-pyran-3-yl)thiophene-2-carboxamide] |
| 1020 nM | 10 nM | O=C(N[C@H]1CCCOC1)c1cc(-c2ccc3nc(NC(=O)C4CC4)cn3c2)cs1 [Example 68, (S)-4-(2-(cyclopropanecarboxamido)imidazo[1,2-a]pyridin-6-yl)-N-(tetrahydro-2H-pyran-3-yl)thiophene-2-carboxamide] |
| 2880 nM | 100 nM | O=C(N[C@@H]1CCCOC1)c1cc(-c2ccc3nc(NC(=O)C4CC4)cn3c2)cs1 [Example 69, (R)-4-(2-(cyclopropanecarboxamido)imidazo[1,2-a]pyridin-6-yl)-N-(tetrahydro-2H-pyran-3-yl)thiophene-2-carboxamide] |
| 891 nM | 31.6 nM | O=C(NC1CCOC1)c1cc(-c2ccc3nc(NC(=O)C4CC4)cn3c2)cs1 (centres unmarked) [Example 70, 4-(2-(cyclopropanecarboxamido)imidazo[1,2-a]pyridin-6-yl)-N-(tetrahydrofuran-3-yl)thiophene-2-carboxamide] |
| 2400 nM | 20 nM | O=C(N[C@@H]1CCOC1)c1cc(-c2ccc3nc(NC(=O)C4CC4)cn3c2)cs1 [Example 71, (R)-4-(2-(cyclopropanecarboxamido)imidazo[1,2-a]pyridin-6-yl)-N-(tetrahydrofuran-3-yl)thiophene-2-carboxamide] |
| 1200 nM | 12.6 nM | O=C(N[C@H]1CCOC1)c1cc(-c2ccc3nc(NC(=O)C4CC4)cn3c2)cs1 [Example 72, (S)-4-(2-(cyclopropanecarboxamido)imidazo[1,2-a]pyridin-6-yl)-N-(tetrahydrofuran-3-yl)thiophene-2-carboxamide] |
| 1660 nM | 63.1 nM | COCCNC(=O)c1cc(-c2ccc3nc(NC(=O)C4CC4)cn3c2)cs1 [Example 73, 4-(2-(cyclopropanecarboxamido)imidazo[1,2-a]pyridin-6-yl)-N-(2-methoxyethyl)thiophene-2-carboxamide] |
| 1350 nM | 31.6 nM | O=C(Nc1cn2cc(-c3csc(C(=O)N4CCC(F)(F)C4)c3)ccc2n1)C1CC1 [Example 74, N-(6-(5-(3,3-difluoropyrrolidine-1-carbonyl)thiophen-3-yl)imidazo[1,2-a]pyridin-2-yl)cyclopropanecarboxamide] |
| 1700 nM | 50.1 nM | O=C(NCC1CCOC1)c1cc(-c2ccc3nc(NC(=O)C4CC4)cn3c2)cs1 (centres unmarked) [Example 75, 4-(2-(cyclopropanecarboxamido)imidazo[1,2-a]pyridin-6-yl)-N-((tetrahydrofuran-3-yl)methyl)thiophene-2-carboxamide] |
| 912 nM | 15.8 nM | O=C(N[C@H]1CCCC[C@H]1O)c1cc(-c2ccc3nc(NC(=O)C4CC4)cn3c2)cs1 [Example 76, 4-(2-(cyclopropanecarboxamido)imidazo[1,2-a]pyridin-6-yl)-N-((1S,2R)-2-hydroxycyclohexyl)thiophene-2-carboxamide] |
